Consider two compounds from patent US9949473B2, “Coagulation controlling agents and devices comprising the same” (Becton, Dickinson and Company, priority 2011, dated 2018).

Test [1] has as its target T1, thrombin (Homo sapiens, UniProt P00734).
T1 construct: In preferred embodiments, thrombin is alpha-thrombin
Kind of test: Accelerated stability of sprayed thrombin with para-aminobenzamidine (thrombin activity on Stago Compact). The test is classed as biochemical. The note with it: para-aminobenzamidine about 3 mM in about 5 mM citrate or isocitrate pH about 6.1; sealed tubes at about 43° C., about 75% relative humidity; compared to citrates alone; FIG. 6, FIG. 7. Here is the method:
The coagulation controlling agent para-aminobenzamidine was evaluated to determine if it improved the stability of sprayed thrombin under accelerated stability conditions. Without wishing to be bound by any particular theory, it is believed that para-aminobenzamidine stabilizes the spray-dried thrombin under conditions of extremely high humidity, where thrombin autolytic degradation can be rapid, even at room temperature.
Thrombin was prepared in about 5 mM citrate or isocitrate at a pH of about 6.1. Para-aminobenzamidine was added at a concentration of about 3 mM. About 16 μL of this solution was sprayed into 13×100 mm PET tubes. The tubes were dried by forced hot air, and evacuated. Sealed tubes were then placed in a controlled environmental chamber previously equilibrated to about 43° C. and about 75% relative humidity. At various time intervals, the tubes were removed and evaluated for thrombin activity on the Stago Compact coagulation analyzer. The error bars indicate the 95% confidence interval for the thrombin activity with 5 replicates.

The subject of test [2] is reconstituted commercial lyophilized human plasma. Put plainly: Clotting time of plasma with thrombin/protamine solutions on Stago Compact coagulation analyzer. Format: biochemical. The note with it: thrombin and protamine in about 20 mM citrate pH about 6, mixed about 1:1 with plasma; FIG. 3. Here is the method: Solutions of thrombin and protamine in about 20 mM of citrate at a pH of about 6 were mixed in a ratio of about 1:1 with reconstituted commercial lyophilized human plasma and tested on a Stago Compact coagulation analyzer. The resulting clotting times were measured as a function of thrombin and protamine concentration for a given thrombin concentration. The concentrations listed on the graph of FIG. 3 represent the thrombin/protamine solutions before being mixed with the plasma.

The test system of test [3] is freshly drawn human blood. Put plainly: Visual scoring of fibrin mass in serum from blood clotted in thrombin/protamine tubes. The note with it: protamine about 0.5 mg/mL; FIG. 2. As to the method:
Protamine sulfate was first resuspended in about 0.5 M hydrochloric acid at a concentration of about 250 mg/mL. This solution was then titrated to a pH of about 6 with 5 N sodium hydroxide. This titration to about pH 6 was performed immediately since prolonged exposure of protamine to low pH, it was believed, would result in hydrolysis and loss of activity. It is also believed that more dilute solutions of hydrochloric acid could be used for preparing the protamine solution.
The protamine solution was then mixed in a ratio of about 1:1 with a solution of about 1250 U/mL of thrombin in about 40 mM sodium citrate at about pH 6.0, containing about 20 mg/mL of a siloxane alkoxylate surfactant, and 2 mg/mL polyvinylpyrrolidone (PVP).
The resulting reagent was filtered and sprayed in 20 μL shots into 13×100 mm polyethyleneterephthalate (PET) tubes. The tubes were then dried by forced hot air, and evacuated and stoppered.
Tubes were filled with freshly drawn human blood and allowed to clot for between about 1 to about 3.5 minutes (randomized) and then centrifuged. The resulting serum was scored by visual assessment for the presence of a “fibrin mass” in the serum compartment on a scale of 0 to 3, with 3 being the most severe.

The target of test [4] is T1, thrombin. Kind of test: Accelerated stability of sprayed thrombin with protamine (thrombin activity on Stago Compact). Particulars: about 45% relative humidity. Format: biochemical. As to the method:
A mixture of thrombin (about 1250 U/mL), protamine (about 125 mg/mL or about 62.5 mg/mL), and a siloxane alkoxylate surfactant was prepared in about 20 mM citrate at a pH of about 6.0. About 20 μL of this mixture was sprayed into 13×100 mm PET tubes. The tubes were dried by forced hot air, evacuated, and stored in the refrigerator. At the initiation of the study, the tubes were uncapped and placed in a controlled environmental chamber previously equilibrated to about 50° C. and about 45% relative humidity. At various time intervals, tubes were removed and evaluated for thrombin activity on the Stago Compact coagulation analyzer. The error bars indicate the 95% confidence interval for the thrombin activity with 5 replicates.
When the thrombin activity of subsequent time points were normalized on the initial value, the resulting curves could be used to compare the relative stability of each formulation (see FIG. 5).

Ends that are not written are not given here.

On to `N=C(N)c1ccc(N)cc1` [para-aminobenzamidine], for which the “thrombin stability over time” value in test [1] was “preserves thrombin stability over time”.

For “Protamine sulfate (PRRRRSSSRPVRRRRRPRVSRRRRRRGGRRRR; also: sulfate salt) [coagulation controlling agent; ID; NO; 1 in some embodiments]”, the “clotting time as a function of protamine concentration” value in test [2] was “decreasing clotting time with increasing protamine concentration”. For the same compound, in test [3], the “performance of the tube (fibrin mass formation)” value is on record as “improved the performance of the tube dramatically”. Further, the “relative stability (thrombin activity normalized on the initial value)” value in test [4] (about 50° C., compared with thrombin formulations without protamine, FIG. 5) was “more stable”. In addition, the “thrombin activity over time” value in test [4] (thrombin about 1250 U/mL, protamine about 125 or about 62.5 mg/mL, sprayed and dried in PET tubes, uncapped at about 50° C., FIG. 4) is “better with the protamine than without it”.
